Measurements as given in PMC4519322 (PLoS Pathogens, 2015).
Read-outs that look alike come from different tables or passages of the source.

Legend:
[1] = tested on: recombinant wild-type WSN (rWSN); test: microbe, parasite or virus in culture; format: cell-based; settings: Influenza A virus, H1N1 / WSN, read-out: IC50 (μM) WT rWSM (H1N1)
A/WSN/1933 (H1N1) virus = test: microbe, parasite or virus in culture; format: cell-based, influenza A virus; settings: for IC50 / IC90: Influenza A virus
in vitro = settings: dog, CC50 (50% cytotoxicity concentration), MDCK cells, WST-1 assay
NP = NP (Influenza A virus, UniProt P15682); format: cell-based, A/WSN/1933 (H1N1)
[2] = tested on: influenza A/WSN/1933 (H1N1) virus; set-up: species or system Balb/c mice; settings: mouse, in vivo
[3] = tested on: A/Ontario/6118/1968 (H8N4); test: microbe, parasite or virus in culture; format: cell-based; settings: Influenza A virus, H8N4, MDCK
[4] = target: vRNA-induced NP oligomerization (Influenza A virus, UniProt P15682); format: biochemical
[5] = tested on: A/Massachusetts/3740/1965 (H6N2); test: microbe, parasite or virus in culture; format: cell-based; settings: Influenza A virus, H6N2, MDCK
[6] = tested on: virus life cycle in MDCK cells; format: cell-based
A/Germany/N/1949 (H10N7) = test: microbe, parasite or virus in culture; format: cell-based; settings: Influenza A virus, MDCK
[7] = mouse plasma
[8] = tested on: A/California/7/2009 virus (H1N1); test: microbe, parasite or virus in culture; format: cell-based; settings: Influenza A virus, H1N1, MDCK
NP-Flag = NP-Flag (Influenza A virus, UniProt P15682); format: binding
[9] = tested on: A/Alberta/60/1976 (H12N5); test: microbe, parasite or virus in culture; format: cell-based; settings: Influenza A virus, MDCK
A/Udorn/307/1972 (H3N2) = test: microbe, parasite or virus in culture; format: cell-based; settings: Influenza A virus, H3N2, MDCK
[10] = tested on: nuclear export of NP-mRFP-Flag; test: in vitro nuclear export assay, digitonin-permeabilized HeLa cells; format: cell-based; settings: with HeLa cell lysate, 42% with lysate alone
Description: HeLa cells were attached to glass cover slips at 37°C for 24 h and then transiently transfected with NP-mRFP-Flag/pCAGGS. After 48 h, cells were washed twice with cold transport buffer (20 mM HEPES (pH 7.4), 110 mM potassium acetate, 2 mM magnesium acetate, 1 mM EGTA (pH 7.4), 2 mM DTT, 1 μg/mL aprotinin, 1 μg/mL leupeptin, and 1 μg/mL pepstatin) and permeabilized with digitonin (50 μg/mL; Sigma) in transport buffer for 5 min on ice. The cells were then washed with cold transport buffer and incubated with apyrase (10 U/mL; Sigma) for 5 min on ice. After washing twice with cold transport buffer, the cells were incubated in cold transport buffer for 10 min on ice before addition of a the reaction mixture (40 μg HeLa cell lysate, 10 mg/mL bovine serum albumin (BSA), 10 mM ATP, 5 mM creatine phosphate, 0.64 U creatine kinase) containing (or not) the test compounds. The mixture was the incubated at 30°C for 1 h. After washing three times with cold transport buffer, mRFP fluorescence was observed under a confocal laser scanning microscope (FV 1000; Olympus). The fluorescence intensity in the nuclei was analyzed with MetaMorph software (Molecular Devices Inc., Downingtown, PA). The fluorescence intensity of NP-mRFP-Flag was quantified in >100 nuclei in each of three independent experiments.

in vivo = settings: Balb/c, mouse, 10 mg/kg
NP-RNA interaction = NP-RNA interaction (Influenza A virus, UniProt P15682); format: biochemical
[11] = tested on: vRNA encoding the PB2 subunit; format: cell-based, A/WSN/1933 (H1N1)
[12] = tested on: A/Astrakhan/263/1982 (H14N15); test: microbe, parasite or virus in culture; format: cell-based; settings: Influenza A virus, MDCK
viral protein expression = format: cell-based
CRM1 binding to NP = CRM1 binding to NP (Influenza A virus, UniProt P15682); format: biochemical
A/England/1/1956 (H11N6) = test: microbe, parasite or virus in culture; format: cell-based; settings: Influenza A virus, MDCK
NP-NP interaction = NP-NP interaction (Influenza A virus, UniProt P15682); format: biochemical
A/Anhui/1/2013(H7N9) = test: microbe, parasite or virus in culture; format: cell-based; settings: Influenza A virus, H7N9, MDCK
vRNP activity = vRNP activity (Influenza A virus, UniProt P15682); format: cell-based, influenza A/WSN/1933 (H1N1)
[13] = tested on: A/Ck/yamaguchi/7/2004 (H5N1); test: microbe, parasite or virus in culture; format: cell-based; settings: Influenza A virus, H5N1, MDCK
[14] = tested on: Influenza A/WSN/1933 (H1N1) virus; format: cell-based
A/Tex/131 (H3N2) = test: microbe, parasite or virus in culture; format: cell-based; settings: Influenza A virus, H3N2, MDCK
[15] = in vivo; cited from earlier work
[16] = MDCK, read-out: IC50 (SAR analysis of RK424)

vRNP activity, sequence (P15682 whole entry, looked up): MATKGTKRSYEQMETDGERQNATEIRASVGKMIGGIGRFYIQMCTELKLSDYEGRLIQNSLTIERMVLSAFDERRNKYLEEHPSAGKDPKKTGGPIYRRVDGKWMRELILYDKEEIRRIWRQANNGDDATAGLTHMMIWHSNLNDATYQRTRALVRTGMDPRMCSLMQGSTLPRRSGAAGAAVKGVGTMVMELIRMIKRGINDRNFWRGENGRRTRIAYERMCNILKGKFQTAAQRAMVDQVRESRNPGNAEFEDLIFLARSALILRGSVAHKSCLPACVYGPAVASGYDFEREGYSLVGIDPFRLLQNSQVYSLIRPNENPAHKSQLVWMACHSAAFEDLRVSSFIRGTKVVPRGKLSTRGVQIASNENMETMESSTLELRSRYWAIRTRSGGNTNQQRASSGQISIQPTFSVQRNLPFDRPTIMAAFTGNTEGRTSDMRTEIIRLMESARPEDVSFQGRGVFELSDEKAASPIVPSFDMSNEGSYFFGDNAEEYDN
CRM1 binding to NP, sequence (P15682 whole entry, looked up): as above
NP, sequence (P15682 whole entry, looked up): as above
NP-Flag, sequence (P15682 whole entry, looked up): as above
vRNA-induced NP oligomerization, sequence (P15682 whole entry, looked up): as above
NP-RNA interaction, sequence (P15682 whole entry, looked up): as above
NP-NP interaction, sequence (P15682 whole entry, looked up): as above

`Cc1onc(-c2ccccc2)c1C(=O)N1CCN(c2ccc([N+](=O)[O-])cc2Cl)CC1` [Nucleozin, nucleozin, reference compound] showed an IC50 [1] of 0.2 ± 0.03 µM.

In the case of `O=C(O)c1cc(-c2ccc(Oc3ccccc3)cc2)nc2ccccc12` [Analog #4], the “antiviral effect relative to RK424 (SAR, in words)” value (“antiviral effect relative to RK424” for short) (A/WSN/1933 (H1N1) virus) is reported as “antiviral effect comparable with that of RK424”, the IC50 (A/WSN/1933 (H1N1) virus; [16]) is reported as 430 ± 150 nM and the CC50 (in vitro) is reported as greater than 10000 nM.

In the case of `NC(=O)c1cc(-c2ccc(-c3ccccc3)cc2)nc2ccccc12` [Analog #1], the “antiviral effect relative to RK424” value (A/WSN/1933 (H1N1) virus) is reported as “partial reduction in the antiviral effect”, the IC50 (A/WSN/1933 (H1N1) virus; [16]) is reported as 10100 ± 2070 nM and the CC50 (in vitro) is reported as greater than 10000 nM.

With `O=C(O)c1cc(-c2ccc(-c3ccccc3)cc2)nc2ccccc12` [RK424] the “NP localization in virus-infected HeLa cells” value (NP) was “nuclear rather than cytoplasmic localization of NP”, the “body weight change (in words)” value [2] was “lost less weight” and the “reduction in the virus titer in the lung compared with controls” value [2] was ~ 2 log. The “virus titer in the lungs” value [2] was 2.9×10^3 PFU/mL, the IC50 [3] was 490 ± 40 nM and the IC90 [3] was 910 ± 20 nM. The “rate of NP oligomerization” value [4] was “dose-dependent reduction in the rate of oligomerization”, the IC50 [5] was 590 ± 90 nM and the IC90 [5] was 1590 ± 120 nM. For the same compound, the “antiviral effect by time of addition” value [6] was “prominent antiviral effect at an early stage in the virus life cycle”, the IC50 (A/Germany/N/1949 (H10N7)) was 580 ± 140 nM and the IC90 (A/Germany/N/1949 (H10N7)) was 1090 ± 80 nM. The “drug free from plasma protein” value [7] was 0.4%, the plasma protein binding ([7]; 50 μM, 37°C 30 min) was 99.6% and the “plaque formation (number and size)” value (A/WSN/1933 (H1N1) virus) was “reduction in the number, but not the size, of viral plaques”. The IC50 (A/WSN/1933 (H1N1) virus; MDCK) was 480 ± 190 nM, the IC90 (A/WSN/1933 (H1N1) virus; MDCK) was 1190 ± 360 nM and the IC50 (A/WSN/1933 (H1N1) virus; read-out: IC50 expressed as ng/mL) was 163 ng/mL. For the same compound, the IC90 (A/WSN/1933 (H1N1) virus; read-out: IC90 expressed as ng/mL) was 390 ng/mL, the IC50 [8] was 400 ± 70 nM and the IC90 [8] was 880 ± 20 nM. The “binding of wild-type NP-Flag to RK424 beads” value (NP-Flag) was “bound to RK424 beads but not to control beads”, the IC50 [1] was 0.38 ± 0.04 µM and the IC50 [9] was 620 ± 230 nM. It also gave an IC90 [9] of 1510 ± 870 nM, an IC50 (A/Udorn/307/1972 (H3N2)) of 490 ± 190 nM and an IC90 (A/Udorn/307/1972 (H3N2)) of 1230 ± 240 nM. For the same compound, the CC50 (in vitro) was no less than 50000 nM, the “mRFP fluorescence intensity in the nucleus, % of buffer-treated cells” value ([10]; 2 μM) was 76% and the “mRFP fluorescence intensity in the nucleus, % of buffer-treated cells” value ([10]; 10 μM) was 134%. For the same compound, the Vd (in vivo) was 0.583 L/kg, the Cmax (in vivo; ip) was 39200 ng/mL and the “RNA binding, less than control samples” value (NP-RNA interaction) was roughly 50%. For the same compound, the “vRNA expression (FISH)” value [11] was “significant reduction in vRNA expression”, the IC50 [12] was 420 ± 60 nM and the IC90 [12] was 950 ± 10 nM. For the same compound, the “Cmax relative to the in vitro IC50 concentration” value (Cmax 39200 ng/mL vs 162.7 ng/mL) was “more than 200 times”, the “bioavailability via the oral route relative to the intraperitoneal route, lower by” value (mice, 10 mg/kg) was 50% and the “free drug maximum concentration (Cfree max)” value (mice, intravenous 1 mg/kg, plasma) was 11.4 ng/mL. The “free drug maximum concentration (Cfree max)” value (mice, oral route 10 mg/kg) was 46.4 ng/mL, the “free drug maximum concentration (Cfree max)” value (mice, context intraperitoneal 10 mg/kg) was 156.8 ng/mL and the “viral protein expression (western blotting)” value (viral protein expression) was “reduction in viral protein expression”. For the same compound, the “binding of CRM1 to NP-Flag beads” value (CRM1 binding to NP) was “binding was inhibited”, the IC50 (A/England/1/1956 (H11N6)) was 570 ± 160 nM and the IC90 (A/England/1/1956 (H11N6)) was 940 ± 20 nM. The “binding of NP-HA to NP-mRFP-Flag beads” value (NP-NP interaction) was “inhibited the binding of NP-HA to NP-mRFP-Flag beads in a dose-dependent manner”, the IC50 (A/Anhui/1/2013(H7N9)) was 600 ± 120 nM and the IC90 (A/Anhui/1/2013(H7N9)) was 1140 ± 260 nM. For the same compound, the “luciferase activity (vRNP activity)” value (vRNP activity) was “notable and dose-dependent reduction in luciferase activity”, the IC50 [13] was 570 ± 40 nM and the IC90 [13] was 930 ± 20 nM. The “effect on viral replication when added prior to virus inoculation” value [14] was “did not interfere with viral replication”, the IC50 (A/Tex/131 (H3N2)) was 590 ± 130 nM and the IC90 (A/Tex/131 (H3N2)) was 980 ± 20 nM.

For `NC(=O)c1nc(F)c[nH]c1=O` [Analog T-705, favipiravir], the “recovery from morbidity, of that of the negative control group” value [15] is listed as 20% and the “viral titers in the lung” value [15] is listed as 3.50 log10 PFU/mL.

With `CCC(=C/[C@H](C)C/C=C/C(C)=C/[C@@H](C)C(=O)[C@@H](C)[C@H](O)[C@@H](C)C/C(C)=C/C(=O)O)/C=C/[C@@H]1OC(=O)C=C[C@@H]1C` [leptomycin B, reference compound] the “mRFP fluorescence intensity in the nucleus, % of buffer-treated cells” value ([10]; concentration not given) was 97% and the “binding of CRM1 to NP-Flag beads” value (CRM1 binding to NP) was “binding was inhibited”.

For `CCOC(=O)C1=C[C@@H](OC(CC)CC)[C@H](NC(C)=O)[C@@H](N)C1` [oseltamivir phosphate, reference compound], the “NP localization in virus-infected HeLa cells” value (NP) was “NP localized in both the nucleus and cytoplasm”, the “body weight change (in words)” value [2] was “no weight loss” and the “luciferase activity (vRNP activity)” value (vRNP activity) was “did not significantly inhibit luciferase activity”.

For `O=C(O)c1cc(N2CCN(c3ccccc3)CC2)nc2ccccc12` [Analog #2], the “antiviral effect relative to RK424” value (A/WSN/1933 (H1N1) virus) was “complete loss of antiviral activity”, the IC50 (A/WSN/1933 (H1N1) virus; [16]) was greater than 30000 nM and the CC50 (in vitro) was greater than 10000 nM.

For `O=C(O)c1ccnc(-c2ccc(-c3ccccc3)cc2)c1` [Analog #3], the “antiviral effect relative to RK424” value (A/WSN/1933 (H1N1) virus) was “complete loss of antiviral activity”, the IC50 (A/WSN/1933 (H1N1) virus; [16]) was greater than 30000 nM and the CC50 (in vitro) was greater than 10000 nM.
